# pIC50: −log10 of the molar value. Activity calls are given as the source filed them. No cut-off for these calls is given here.
# What was measured:
# [1] = Metabolic stability in human liver microsomes assessed as half-life measured upto 40 mins by LC-MS/MS analysis; format: ADME, Microsome
# [2] = Metabolic stability in rat liver microsomes assessed as half-life measured upto 40 mins by LC-MS/MS analysis; format: ADME, Microsome
# [3] = Metabolic stability in mouse liver microsomes assessed as half-life measured upto 40 mins by LC-MS/MS analysis; format: ADME, Microsome
# [4] = Metabolic stability in human liver microsomes assessed as intrinsic clearance measured upto 40 mins by LC-MS/MS analysis; format: ADME, Microsome; settings: read-out: CLH
# [5] = Metabolic stability in rat liver microsomes assessed as intrinsic clearance measured upto 40 mins by LC-MS/MS analysis; format: ADME, Microsome; settings: read-out: CLH
# [6] = Metabolic stability in mouse liver microsomes assessed as intrinsic clearance measured upto 40 mins by LC-MS/MS analysis; format: ADME, Microsome; settings: read-out: CLH
# [7] = target: Histone deacetylase 1 (Homo sapiens, UniProt Q13547); test: Inhibition of HDAC1 (unknown origin)
# [8] = target: Histone deacetylase 2 (Homo sapiens, UniProt Q92769); test: Inhibition of HDAC2 (unknown origin)
# Histone deacetylase 2, sequence (Q92769 whole entry): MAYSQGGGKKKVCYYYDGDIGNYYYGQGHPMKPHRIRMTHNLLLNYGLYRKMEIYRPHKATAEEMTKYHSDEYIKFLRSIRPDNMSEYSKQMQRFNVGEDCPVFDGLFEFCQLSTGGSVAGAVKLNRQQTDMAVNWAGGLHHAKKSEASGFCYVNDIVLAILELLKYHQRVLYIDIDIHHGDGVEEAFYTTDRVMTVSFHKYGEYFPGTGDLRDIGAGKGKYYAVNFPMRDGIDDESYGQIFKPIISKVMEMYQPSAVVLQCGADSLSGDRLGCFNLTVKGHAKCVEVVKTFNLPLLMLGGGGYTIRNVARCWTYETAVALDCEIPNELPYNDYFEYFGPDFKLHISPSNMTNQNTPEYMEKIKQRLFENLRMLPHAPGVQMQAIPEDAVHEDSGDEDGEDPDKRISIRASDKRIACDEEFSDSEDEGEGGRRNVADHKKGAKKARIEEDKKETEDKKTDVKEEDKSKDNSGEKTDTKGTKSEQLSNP
# [9] = target: Histone deacetylase 3 (Homo sapiens, UniProt O15379); test: Inhibition of HDAC3 (unknown origin)
# Histone deacetylase 3, sequence (O15379 whole entry): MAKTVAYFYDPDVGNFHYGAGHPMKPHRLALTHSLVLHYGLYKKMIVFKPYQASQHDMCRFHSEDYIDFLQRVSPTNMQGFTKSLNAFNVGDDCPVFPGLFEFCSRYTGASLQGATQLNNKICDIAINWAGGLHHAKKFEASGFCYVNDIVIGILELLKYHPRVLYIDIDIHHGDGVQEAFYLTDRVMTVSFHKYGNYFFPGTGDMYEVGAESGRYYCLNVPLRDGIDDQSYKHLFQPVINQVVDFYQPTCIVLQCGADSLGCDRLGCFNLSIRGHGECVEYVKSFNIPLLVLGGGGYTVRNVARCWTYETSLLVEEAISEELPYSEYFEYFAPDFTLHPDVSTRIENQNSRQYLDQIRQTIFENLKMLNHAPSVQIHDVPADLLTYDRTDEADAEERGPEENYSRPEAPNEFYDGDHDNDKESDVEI
# [10] = target: Histone deacetylase 8 (Homo sapiens, UniProt Q9BY41); test: Inhibition of HDAC8 (unknown origin)
# Histone deacetylase 8, sequence (Q9BY41 whole entry): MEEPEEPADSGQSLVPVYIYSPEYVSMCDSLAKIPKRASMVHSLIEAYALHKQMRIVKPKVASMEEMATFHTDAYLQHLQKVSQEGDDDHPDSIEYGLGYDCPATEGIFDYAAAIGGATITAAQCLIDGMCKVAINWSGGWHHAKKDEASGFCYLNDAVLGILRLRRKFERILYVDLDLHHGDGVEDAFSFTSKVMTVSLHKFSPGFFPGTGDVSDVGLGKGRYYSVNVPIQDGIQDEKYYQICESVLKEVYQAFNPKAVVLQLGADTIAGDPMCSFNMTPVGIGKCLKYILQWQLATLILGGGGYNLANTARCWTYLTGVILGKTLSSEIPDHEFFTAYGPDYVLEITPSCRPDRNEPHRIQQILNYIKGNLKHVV
# [11] = target: Histone deacetylase 4 (Homo sapiens, UniProt P56524); test: Inhibition of HDAC4 (unknown origin)
# Histone deacetylase 4, sequence (P56524 whole entry): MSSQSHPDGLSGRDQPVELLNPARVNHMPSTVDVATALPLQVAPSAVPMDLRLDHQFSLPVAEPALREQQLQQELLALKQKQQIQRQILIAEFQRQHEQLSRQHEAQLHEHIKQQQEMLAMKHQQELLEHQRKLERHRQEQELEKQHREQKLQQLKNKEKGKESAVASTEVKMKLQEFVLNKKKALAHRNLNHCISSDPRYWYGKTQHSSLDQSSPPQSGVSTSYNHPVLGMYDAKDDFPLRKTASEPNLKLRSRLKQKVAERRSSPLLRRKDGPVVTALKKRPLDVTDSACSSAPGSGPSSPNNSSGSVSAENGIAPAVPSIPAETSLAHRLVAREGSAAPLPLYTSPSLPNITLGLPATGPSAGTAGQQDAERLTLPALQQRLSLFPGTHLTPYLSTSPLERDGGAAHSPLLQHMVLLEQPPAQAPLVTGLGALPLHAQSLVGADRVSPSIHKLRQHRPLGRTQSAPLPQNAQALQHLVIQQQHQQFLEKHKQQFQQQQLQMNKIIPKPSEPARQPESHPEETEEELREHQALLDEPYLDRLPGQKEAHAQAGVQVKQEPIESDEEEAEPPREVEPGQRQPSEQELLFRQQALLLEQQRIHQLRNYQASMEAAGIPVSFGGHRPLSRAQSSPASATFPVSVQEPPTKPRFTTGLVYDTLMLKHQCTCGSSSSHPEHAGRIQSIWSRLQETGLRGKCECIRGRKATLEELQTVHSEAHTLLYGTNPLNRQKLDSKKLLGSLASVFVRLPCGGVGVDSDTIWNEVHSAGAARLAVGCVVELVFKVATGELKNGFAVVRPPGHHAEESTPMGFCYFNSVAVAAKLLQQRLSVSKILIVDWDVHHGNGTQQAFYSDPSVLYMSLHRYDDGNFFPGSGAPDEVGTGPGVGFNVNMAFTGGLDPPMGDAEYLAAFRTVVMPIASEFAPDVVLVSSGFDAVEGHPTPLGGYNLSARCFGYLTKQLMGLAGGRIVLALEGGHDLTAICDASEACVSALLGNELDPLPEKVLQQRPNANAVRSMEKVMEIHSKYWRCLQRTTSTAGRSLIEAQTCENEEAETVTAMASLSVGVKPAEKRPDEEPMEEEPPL
# [12] = target: Histone deacetylase 5 (Homo sapiens, UniProt Q9UQL6); test: Inhibition of HDAC5 (unknown origin)
# [13] = target: Histone deacetylase 7 (Homo sapiens, UniProt Q8WUI4); test: Inhibition of HDAC7 (unknown origin)
# [14] = target: Histone deacetylase 9 (Homo sapiens, UniProt Q9UKV0); test: Inhibition of HDAC9 (unknown origin)
# Histone deacetylase 9, sequence (Q9UKV0 whole entry): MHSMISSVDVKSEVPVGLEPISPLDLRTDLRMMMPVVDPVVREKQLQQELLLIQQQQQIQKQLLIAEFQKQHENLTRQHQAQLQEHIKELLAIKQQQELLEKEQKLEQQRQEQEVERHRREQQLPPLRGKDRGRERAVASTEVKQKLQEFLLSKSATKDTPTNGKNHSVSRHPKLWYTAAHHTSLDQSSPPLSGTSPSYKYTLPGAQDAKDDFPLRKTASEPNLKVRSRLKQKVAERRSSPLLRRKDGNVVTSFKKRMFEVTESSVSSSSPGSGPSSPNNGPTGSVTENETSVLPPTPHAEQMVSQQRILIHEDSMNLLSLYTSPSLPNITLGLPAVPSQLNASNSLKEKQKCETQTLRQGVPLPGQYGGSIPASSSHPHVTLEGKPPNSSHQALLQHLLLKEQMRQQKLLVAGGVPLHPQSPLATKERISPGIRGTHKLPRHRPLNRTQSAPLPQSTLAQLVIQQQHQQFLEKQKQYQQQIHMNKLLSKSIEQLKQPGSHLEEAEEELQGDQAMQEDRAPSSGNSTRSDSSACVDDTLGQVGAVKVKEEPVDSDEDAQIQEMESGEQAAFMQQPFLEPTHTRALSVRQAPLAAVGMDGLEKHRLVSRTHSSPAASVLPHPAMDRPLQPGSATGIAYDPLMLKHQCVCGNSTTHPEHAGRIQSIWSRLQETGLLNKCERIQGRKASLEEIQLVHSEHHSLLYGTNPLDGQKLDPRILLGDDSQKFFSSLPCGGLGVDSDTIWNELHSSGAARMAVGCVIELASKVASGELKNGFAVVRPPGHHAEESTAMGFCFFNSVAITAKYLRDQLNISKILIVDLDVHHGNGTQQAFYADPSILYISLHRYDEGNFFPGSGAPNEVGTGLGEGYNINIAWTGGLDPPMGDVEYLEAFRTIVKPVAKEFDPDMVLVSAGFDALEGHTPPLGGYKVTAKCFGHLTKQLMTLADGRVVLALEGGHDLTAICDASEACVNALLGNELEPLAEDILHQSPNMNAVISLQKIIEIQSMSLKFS
# [15] = target: Protein deacetylase HDAC6 (Homo sapiens, UniProt Q9UBN7); test: Inhibition of HDAC6 (unknown origin)
# [16] = target: Polyamine deacetylase HDAC10 (Homo sapiens, UniProt Q969S8); test: Inhibition of HDAC10 (unknown origin)
# Polyamine deacetylase HDAC10, sequence (Q969S8 whole entry): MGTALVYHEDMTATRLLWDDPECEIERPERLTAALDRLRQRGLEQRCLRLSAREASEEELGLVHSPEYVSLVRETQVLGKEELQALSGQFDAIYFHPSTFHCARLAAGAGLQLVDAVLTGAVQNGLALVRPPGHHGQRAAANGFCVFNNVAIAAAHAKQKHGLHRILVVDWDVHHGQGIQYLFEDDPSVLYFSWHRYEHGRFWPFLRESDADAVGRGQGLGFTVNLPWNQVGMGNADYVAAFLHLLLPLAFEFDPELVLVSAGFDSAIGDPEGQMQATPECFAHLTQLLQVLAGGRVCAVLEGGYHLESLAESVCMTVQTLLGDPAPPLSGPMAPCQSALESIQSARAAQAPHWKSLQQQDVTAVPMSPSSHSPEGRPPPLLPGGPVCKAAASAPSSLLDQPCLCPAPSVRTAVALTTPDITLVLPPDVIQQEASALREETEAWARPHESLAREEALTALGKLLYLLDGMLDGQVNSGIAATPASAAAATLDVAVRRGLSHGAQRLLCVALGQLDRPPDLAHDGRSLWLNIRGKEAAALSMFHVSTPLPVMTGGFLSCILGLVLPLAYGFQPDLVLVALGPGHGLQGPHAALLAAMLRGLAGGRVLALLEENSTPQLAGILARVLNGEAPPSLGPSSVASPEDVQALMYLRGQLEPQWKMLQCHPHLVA
# [17] = target: Histone deacetylase 11 (Homo sapiens, UniProt Q96DB2); test: Inhibition of HDAC11 (unknown origin)
# Histone deacetylase 11, sequence (Q96DB2 whole entry): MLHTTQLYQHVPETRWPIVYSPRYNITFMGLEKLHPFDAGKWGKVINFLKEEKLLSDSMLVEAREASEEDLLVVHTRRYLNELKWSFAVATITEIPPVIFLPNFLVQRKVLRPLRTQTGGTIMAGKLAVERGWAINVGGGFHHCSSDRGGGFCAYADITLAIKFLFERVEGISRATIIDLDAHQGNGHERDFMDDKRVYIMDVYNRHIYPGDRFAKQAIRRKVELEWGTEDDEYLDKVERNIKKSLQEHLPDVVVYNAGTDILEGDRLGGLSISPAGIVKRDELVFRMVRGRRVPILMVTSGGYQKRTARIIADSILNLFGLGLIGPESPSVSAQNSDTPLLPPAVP
# [18] = tested on: PANC-1; test: Cell cycle arrest in human PANC-1 cells assessed as accumulation of cells at GO-G1 phase at 2 uM incubated for 24 hrs by PI/RNase staining based flow cytometric analysis; format: functional
# [19] = tested on: PANC-1; test: Induction of apoptosis in human PANC-1 cells assessed as apoptotic cells at 2 uM incubated for 24 hrs by flow cytometric analysis relative to control; format: functional
# [20] = tested on: HT-29; test: Induction of apoptosis in human HT-29 cells assessed as apoptotic ratio at 2 uM incubated for 24 hrs by flow cytometric analysis; format: functional
# [21] = tested on: PANC-1; test: Induction of apoptosis in human PANC-1 cells assessed as increase in Bax expression at 2 uM incubated for 24 hrs by Western blot analysis; format: functional, cell-based
# [22] = tested on: PANC-1; test: Induction of apoptosis in human PANC-1 cells assessed as increase in Cytochrome C expression level at 2 uM incubated for 24 hrs by Western blot analysis; format: functional, cell-based
# [23] = tested on: PANC-1; test: Induction of apoptosis in human PANC-1 cells assessed as increase in cleaved caspase-9 expression level at 2 uM incubated for 24 hrs by Western blot analysis; format: functional, cell-based
# [24] = tested on: PANC-1; test: Induction of apoptosis in human PANC-1 cells assessed as increase in cleaved caspase-3 expression level at 2 uM incubated for 24 hrs by Western blot analysis; format: functional, cell-based
# [25] = tested on: PANC-1; test: Induction of apoptosis in human PANC-1 cells assessed as increase in cleaved PARP expression level at 2 uM incubated for 24 hrs by Western blot analysis; format: functional, cell-based
# [26] = tested on: HT-29; test: Antitumor activity against human HT-29 cells xenografted in BALB/c nude mouse assessed as tumor growth inhibition at 7.5 mg/kg, ip administered once a day for 24 days relative to control; format: functional; settings: HT-29, 576 h, time 24 day, read-out: TGI
# [27] = tested on: HT-29; test: Antitumor activity against human HT-29 cells xenografted in BALB/c nude mouse assessed as tumor growth inhibition at 7.5 mg/kg, ip administered once a day for 24 days in presence of SAHA relative to control; format: functional; settings: HT-29, 576 h, time 24 day, read-out: TGI
# [28] = tested on: A549; test: cells; settings: Homo sapiens, A549, 72 h
# Description: Cytotoxicity against human A549 cells assessed as inhibition of cell growth incubated for 72 hrs by MTT assay
# [29] = tested on: NCI-H1975; test: cells; settings: Homo sapiens, NCI-H1975, 72 h
# Description: Cytotoxicity against human NCI-H1975 cells assessed as inhibition of cell growth incubated for 72 hrs by MTT assay
# [30] = tested on: A-431; test: cells; settings: Homo sapiens, A-431, 72 h
# Description: Cytotoxicity against human A-431 cells assessed as inhibition of cell growth incubated for 72 hrs by MTT assay
# [31] = tested on: SGC-7901; test: cells; settings: Homo sapiens, SGC-7901, 72 h
# Description: Cytotoxicity against human SGC-7901 cells assessed as inhibition of cell growth incubated for 72 hrs by MTT assay
# [32] = tested on: HepG2; test: cells; settings: Homo sapiens, HepG2, 72 h
# Description: Cytotoxicity against human HepG2 cells assessed as inhibition of cell growth incubated for 72 hrs by MTT assay
# [33] = tested on: MCF7; test: cells; settings: Homo sapiens, MCF7, 72 h
# Description: Cytotoxicity against human MCF7 cells assessed as inhibition of cell growth incubated for 72 hrs by MTT assay
# [34] = tested on: L02; test: cells; settings: Homo sapiens, L02, 72 h
# Description: Cytotoxicity against human L02 cells assessed as inhibition of cell growth incubated for 72 hrs by MTT assay
# [35] = tested on: PANC-1; test: cells; settings: Homo sapiens, PANC-1, 72 h
# Description: Cytotoxicity against human PANC-1 cells assessed as inhibition of cell growth incubated for 72 hrs by MTT assay
# [36] = tested on: HT-29; test: cells; settings: Homo sapiens, HT-29, 72 h
# Description: Cytotoxicity against human HT-29 cells assessed as inhibition of cell growth incubated for 72 hrs by MTT assay
# [37] = tested on: K562; test: cells; settings: Homo sapiens, K562, 72 h
# Description: Cytotoxicity against human K562 cells assessed as inhibition of cell growth incubated for 72 hrs by MTT assay
# [38] = tested on: MV4-11; test: cells; settings: Homo sapiens, MV4-11, 72 h
# Description: Cytotoxicity against human MV4-11 cells assessed as inhibition of cell growth incubated for 72 hrs by MTT assay
# [39] = target: Serine/threonine-protein kinase PLK1 (Homo sapiens, UniProt P53350); test: Inhibition of PLK1 (unknown origin)
# Serine/threonine-protein kinase PLK1, sequence (P53350 whole entry): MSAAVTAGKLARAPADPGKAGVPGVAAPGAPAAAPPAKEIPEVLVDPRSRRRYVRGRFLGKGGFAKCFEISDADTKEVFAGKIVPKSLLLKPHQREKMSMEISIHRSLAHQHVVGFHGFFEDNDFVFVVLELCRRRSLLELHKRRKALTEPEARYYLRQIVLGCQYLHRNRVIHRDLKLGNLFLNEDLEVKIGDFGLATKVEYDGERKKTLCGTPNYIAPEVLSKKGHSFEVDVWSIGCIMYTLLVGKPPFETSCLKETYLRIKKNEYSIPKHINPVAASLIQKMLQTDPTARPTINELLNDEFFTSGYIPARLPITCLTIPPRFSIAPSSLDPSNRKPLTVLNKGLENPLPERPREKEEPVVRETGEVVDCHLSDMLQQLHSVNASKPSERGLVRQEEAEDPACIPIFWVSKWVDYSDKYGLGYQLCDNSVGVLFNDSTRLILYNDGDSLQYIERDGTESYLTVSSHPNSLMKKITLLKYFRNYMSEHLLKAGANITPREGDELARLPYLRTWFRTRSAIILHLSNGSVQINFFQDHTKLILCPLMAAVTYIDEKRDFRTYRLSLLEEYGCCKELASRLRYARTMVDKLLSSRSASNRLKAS
# [40] = tested on: PANC-1; test: Cell cycle arrest in human PANC-1 cells assessed as accumulation of cells at G2-M phase at 2 uM incubated for 24 hrs by PI/RNase staining based flow cytometric analysis; format: functional
# [41] = tested on: HT-29; test: Cell cycle arrest in human HT-29 cells assessed as accumulation of cells at G2-M phase at 2 uM incubated for 24 hrs by PI/RNase staining based flow cytometric analysis; format: functional
# [42] = tested on: PANC-1; test: Induction of apoptosis in human PANC-1 cells incubated for 24 hrs by flow cytometric analysis; format: functional, cell-based; settings: dose 1-4 µM
# [43] = tested on: HT-29; test: Induction of apoptosis in human HT-29 cells incubated for 24 hrs by flow cytometric analysis; format: functional, cell-based; settings: dose 1-4 µM
# [44] = Metabolic stability in human liver microsomes assessed as half-life at 1 uM measured upto 40 mins by LC-MS/MS analysis; format: ADME, Microsome
# [45] = Metabolic stability in rat liver microsomes assessed as half-life at 1 uM measured upto 40 mins by LC-MS/MS analysis; format: ADME, Microsome
# [46] = Metabolic stability in mouse liver microsomes assessed as half-life at 1 uM measured upto 40 mins by LC-MS/MS analysis; format: ADME, Microsome
# [47] = Metabolic stability in human liver microsomes assessed as intrinsic clearance at 1 uM measured upto 40 mins by LC-MS/MS analysis; format: ADME, Microsome; settings: read-out: CLH
# [48] = Metabolic stability in rat liver microsomes assessed as intrinsic clearance at 1 uM measured upto 40 mins by LC-MS/MS analysis; format: ADME, Microsome; settings: read-out: CLH
# [49] = Metabolic stability in mouse liver microsomes assessed as intrinsic clearance at 1 uM measured upto 40 mins by LC-MS/MS analysis; format: ADME, Microsome; settings: read-out: CLH
# [50] = tested on: PANC-1; test: Effect on RAS protein expression in human PANC-1 cells at 2 uM incubated for 24 hrs by Western blot analysis; format: functional, cell-based
# [51] = tested on: PANC-1; test: Effect on MEK protein expression in human PANC-1 cells at 2 uM incubated for 24 hrs by Western blot analysis; format: functional, cell-based
# [52] = tested on: PANC-1; test: Effect on ERK1/2 protein expression in human PANC-1 cells at 2 uM incubated for 24 hrs by Western blot analysis; format: functional, cell-based
# [53] = tested on: HT-29; test: Effect on RAS protein expression in human HT-29 cells at 2 uM incubated for 24 hrs by Western blot analysis; format: functional, cell-based
# [54] = tested on: HT-29; test: Effect on MEK protein expression in human HT-29 cells at 2 uM incubated for 24 hrs by Western blot analysis; format: functional, cell-based
# [55] = tested on: HT-29; test: Effect on ERK1/2 protein expression in human HT-29 cells at 2 uM incubated for 24 hrs by Western blot analysis; format: functional, cell-based
# [56] = tested on: PANC-1; test: Inhibition of MAPK signaling pathway in human PANC-1 cells assessed as inhibition of C-RAF phosphorylation at Ser338 residue at 2 uM incubated for 24 hrs by Western blot analysis; format: cell-based
# [57] = tested on: PANC-1; test: Inhibition of MAPK signaling pathway in human PANC-1 cells assessed as inhibition of MEK phosphorylation at 2 uM incubated for 24 hrs by Western blot analysis; format: cell-based
# [58] = tested on: PANC-1; test: Inhibition of MAPK signaling pathway in human PANC-1 cells assessed as inhibition of ERK1/2 phosphorylation at 2 uM incubated for 24 hrs by Western blot analysis; format: cell-based
# [59] = tested on: HT-29; test: Inhibition of MAPK signaling pathway in human HT-29 cells assessed as inhibition of C-RAF phosphorylation at Ser338 residue at 2 uM incubated for 24 hrs by Western blot analysis; format: cell-based
# [60] = tested on: HT-29; test: Inhibition of MAPK signaling pathway in human HT-29 cells assessed as inhibition of MEK phosphorylation at 2 uM incubated for 24 hrs by Western blot analysis; format: cell-based
# [61] = tested on: HT-29; test: Inhibition of MAPK signaling pathway in human HT-29 cells assessed as inhibition of ERK1/2 phosphorylation at 2 uM incubated for 24 hrs by Western blot analysis; format: cell-based
# [62] = tested on: PANC-1; test: Effect on Histone H3 expression in human PANC-1 cells at 2 uM incubated for 24 hrs by Western blot analysis; format: functional, cell-based
# [63] = tested on: PANC-1; test: Effect on alpha-tubulin expression in human PANC-1 cells at 2 uM incubated for 24 hrs by Western blot analysis; format: functional, cell-based
# [64] = tested on: HT-29; test: Effect on Histone H3 expression in human HT-29 cells at 2 uM incubated for 24 hrs by Western blot analysis; format: functional, cell-based
# [65] = tested on: HT-29; test: Effect on alpha-tubulin expression in human HT-29 cells at 2 uM incubated for 24 hrs by Western blot analysis; format: functional, cell-based
compound,measurement,setting,value
O=C(c1ccc(F)cc1)C1CCN(CCn2c(=O)[nH]c3ccccc3c2=O)CC1 [KETANSERIN],half-life,[1],36.6 min
same,half-life,[2],17.6 min
same,half-life,[3],20.6 min
same,CLint scaled,[4],47.5 mL/min/kg
same,CLint scaled,[5],141 mL/min/kg
same,CLint scaled,[6],265 mL/min/kg
COc1cc(OC)c(/C=C/S(=O)(=O)Cc2ccc(OC)c(NCC(=O)O)c2)c(OC)c1 [RIGOSERTIB],pIC50,[7],< 5.00
same,pIC50,[8],< 5.00
same,pIC50,[9],< 5.00
same,pIC50,[10],< 5.00
same,pIC50,[11],< 5.00
same,pIC50,[12],< 5.00
same,pIC50,[13],< 5.00
same,pIC50,[14],< 5.00
same,pIC50,[15],< 5.00
same,pIC50,[16],< 5.00
same,pIC50,[17],< 5.00
same,Activity,[18],Active
same,Activity,[19],41.4%
same,Activity,[20],34.8%
same,Activity,[21],Active
same,Activity,[22],Active
same,Activity,[23],Active
same,Activity,[24],Active
same,Activity,[25],Active
same,inhibition in vivo at 7.5 mg/kg,[26],46%
same,inhibition in vivo at 7.5 mg/kg,[27],77.9%
same,pIC50,[28],6.43
same,pIC50,[29],6.64
same,pIC50,[30],6.44
same,pIC50,[31],6.60
same,pIC50,[32],5.87
same,pIC50,[33],6.59
same,pIC50,[34],< 4.40
same,pIC50,[35],6.59
same,pIC50,[36],6.80
same,pIC50,[37],6.82
same,pIC50,[38],5.94
COc1cc(OC)c(/C=C/S(=O)(=O)Cc2ccc(OC)c(NC(=O)CCC(=O)NO)c2)c(OC)c1,pIC50,[11],7.08
same,pIC50,[14],7.04
same,pIC50,[39],7.69
same,inhibition,[39],Dose-Dependent Effect
same,Activity,[40],Active
same,Activity,[41],Active
same,Activity,[19],55.1%
same,Activity,[20],46.2%
same,Activity,[42],Dose-Dependent Effect
same,Activity,[43],Dose-Dependent Effect
same,Activity,[21],Active
same,Activity,[22],Active
same,Activity,[23],Active
same,Activity,[24],Active
same,Activity,[25],Active
same,half-life at 1 µM,[44],48 min
same,half-life at 1 µM,[45],35.4 min
same,half-life at 1 µM,[46],14.4 min
same,CLint scaled at 1 µM,[47],36.2 mL/min/kg
same,CLint scaled at 1 µM,[48],70.2 mL/min/kg
same,CLint scaled at 1 µM,[49],379 mL/min/kg
same,Activity,[50],inactive
same,Activity,[51],inactive
same,Activity,[52],inactive
same,Activity,[53],inactive
same,Activity,[54],inactive
same,Activity,[55],inactive
same,inhibition,[56],Active
same,inhibition,[57],Active
same,inhibition,[58],Active
same,inhibition,[59],Active
same,inhibition,[60],Active
same,inhibition,[61],Active
same,Activity,[62],inactive
same,Activity,[63],inactive
same,Activity,[64],inactive
same,Activity,[65],inactive
same,pIC50,[28],6.68
same,pIC50,[29],7.10
same,pIC50,[30],6.48
same,pIC50,[31],6.59
same,pIC50,[32],5.77
same,pIC50,[33],6.62
same,pIC50,[34],< 4.40
same,pIC50,[35],6.96
same,pIC50,[36],6.92
same,pIC50,[37],7.70
same,pIC50,[38],6.82

# From ChEMBL document CHEMBL5537193, “Multitargeting HDAC Inhibitors Containing a RAS/RAF Protein Interfering Unit” (J Med Chem, 2024)
